# Measurements reported in US10479795B2 (Incyte Corporation, priority 2016, dated 2019).
# Structures can show the parent of a compound that is named as a salt. Where two headings read alike, the source gives them in different places.
# Columns and labels:
# [1] = test system: Phosphorylated Ribosomal Protein S6 (RPS6); test: THP-1 RPS6 ELISA Assay; format: cell-based, Human; conditions: THP-1 cells, read-out: PI3Kγ_THP1_RPS6_ELISA IC50
# How it was run: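 Serum-starved THP-1 cells were preincubated with a concentration range of compound for 2 h at 37 °C, then stimulated with 10 nM MCP-1 for 15 min. Phospho-RPS6 in lysates was quantified by ELISA at 450 nm. IC50 came from percent inhibition versus log inhibitor concentration.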
# [2] = biological target: PI3Kδ (p110δ/p85α) Recombinant Human Protein (Homo sapiens (Human), UniProt O00329); test: PI3Kδ Scintillation Proximity Assay; format: biochemical
# How it was run: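 Recombinant human p110δ/p85α (3.4 nM) phosphorylates 20 μM di-octanoyl PIP2 using 2 μM ATP spiked with [γ-33P]ATP, 120 min, room temperature, pH 6.7, 2% DMSO. Product measured by scintillation proximity; IC50 from dose-response fit.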
# [3] = biological target: PI3Kγ (p110γ) Recombinant Human Protein (Homo sapiens (Human), UniProt P48736); test: PI3K-γ Scintillation Proximity Assay; format: biochemical; conditions: read-out: PI3Kγ IC50
# How it was run: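 Recombinant human p110γ assayed at room temperature in 20 mM MOPS pH 6.7, 10 mM MgCl2, 5 mM DTT, 0.03% CHAPS, 2% DMSO, with 20 μM PIP2 and 2 μM ATP plus [γ-33P]ATP. Product captured on WGA SPA beads overnight and counted; IC50 fitted from % of solvent-control activity versus log inhibitor concentration.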
# PI3Kγ (p110γ) Recombinant Human Protein, sequence (P48736 whole entry): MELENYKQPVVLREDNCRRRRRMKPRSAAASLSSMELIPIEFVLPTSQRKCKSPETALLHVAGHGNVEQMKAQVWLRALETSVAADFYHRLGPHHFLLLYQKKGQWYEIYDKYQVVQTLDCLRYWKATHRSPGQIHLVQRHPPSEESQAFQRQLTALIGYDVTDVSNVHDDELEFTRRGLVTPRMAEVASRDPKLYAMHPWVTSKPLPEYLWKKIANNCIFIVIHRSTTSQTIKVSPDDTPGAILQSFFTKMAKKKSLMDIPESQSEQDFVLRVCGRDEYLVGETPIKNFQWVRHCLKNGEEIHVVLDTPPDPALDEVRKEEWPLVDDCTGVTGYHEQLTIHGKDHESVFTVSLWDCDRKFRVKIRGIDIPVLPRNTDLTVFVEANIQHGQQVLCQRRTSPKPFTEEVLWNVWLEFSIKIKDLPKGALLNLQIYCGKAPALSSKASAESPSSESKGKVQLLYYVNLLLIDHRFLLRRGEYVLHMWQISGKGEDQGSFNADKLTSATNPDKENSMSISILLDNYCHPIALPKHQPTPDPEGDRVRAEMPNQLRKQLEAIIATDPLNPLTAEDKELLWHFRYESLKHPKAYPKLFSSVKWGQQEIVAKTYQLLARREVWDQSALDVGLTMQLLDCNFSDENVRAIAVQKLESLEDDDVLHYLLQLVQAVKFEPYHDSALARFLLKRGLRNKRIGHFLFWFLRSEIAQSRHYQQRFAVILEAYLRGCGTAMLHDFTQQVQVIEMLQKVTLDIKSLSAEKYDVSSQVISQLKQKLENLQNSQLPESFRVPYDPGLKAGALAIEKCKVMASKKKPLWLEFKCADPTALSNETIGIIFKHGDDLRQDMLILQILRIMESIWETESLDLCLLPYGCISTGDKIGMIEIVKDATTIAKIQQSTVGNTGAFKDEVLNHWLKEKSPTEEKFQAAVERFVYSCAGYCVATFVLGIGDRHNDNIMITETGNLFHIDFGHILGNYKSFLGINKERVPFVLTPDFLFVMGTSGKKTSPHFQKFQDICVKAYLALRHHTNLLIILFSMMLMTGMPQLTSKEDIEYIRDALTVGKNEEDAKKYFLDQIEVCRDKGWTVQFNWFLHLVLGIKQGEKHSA
# PI3Kδ (p110δ/p85α) Recombinant Human Protein, sequence (O00329 whole entry): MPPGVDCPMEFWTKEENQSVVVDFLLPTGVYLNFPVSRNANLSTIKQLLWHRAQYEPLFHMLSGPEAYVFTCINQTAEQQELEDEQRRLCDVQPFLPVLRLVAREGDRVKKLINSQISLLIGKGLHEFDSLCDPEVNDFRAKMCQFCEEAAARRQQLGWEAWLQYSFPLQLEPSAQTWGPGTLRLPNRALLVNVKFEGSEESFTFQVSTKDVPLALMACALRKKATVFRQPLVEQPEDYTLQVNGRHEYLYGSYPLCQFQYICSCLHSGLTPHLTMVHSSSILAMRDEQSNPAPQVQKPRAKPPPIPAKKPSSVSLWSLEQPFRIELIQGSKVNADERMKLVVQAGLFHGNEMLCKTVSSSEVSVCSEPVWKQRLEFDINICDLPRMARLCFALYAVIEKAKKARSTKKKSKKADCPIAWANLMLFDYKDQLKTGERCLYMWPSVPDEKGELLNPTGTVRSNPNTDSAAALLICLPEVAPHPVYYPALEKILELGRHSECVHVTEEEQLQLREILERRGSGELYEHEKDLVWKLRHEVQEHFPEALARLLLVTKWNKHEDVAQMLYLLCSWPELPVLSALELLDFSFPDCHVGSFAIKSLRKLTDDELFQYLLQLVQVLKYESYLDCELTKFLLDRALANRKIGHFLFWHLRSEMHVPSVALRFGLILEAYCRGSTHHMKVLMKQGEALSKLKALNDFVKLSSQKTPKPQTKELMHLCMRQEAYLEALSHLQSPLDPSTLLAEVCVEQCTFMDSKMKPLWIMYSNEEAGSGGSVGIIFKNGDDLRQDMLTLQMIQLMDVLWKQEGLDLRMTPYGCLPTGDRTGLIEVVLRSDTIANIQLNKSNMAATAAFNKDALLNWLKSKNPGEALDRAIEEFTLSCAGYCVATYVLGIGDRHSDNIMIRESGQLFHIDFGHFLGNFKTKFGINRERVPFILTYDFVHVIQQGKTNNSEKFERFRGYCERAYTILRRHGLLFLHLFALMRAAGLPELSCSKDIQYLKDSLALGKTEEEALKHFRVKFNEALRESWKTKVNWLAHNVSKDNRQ
# PI3Kδ (p110δ/p85α) Recombinant Human Protein, sequence (P27986 whole entry partner): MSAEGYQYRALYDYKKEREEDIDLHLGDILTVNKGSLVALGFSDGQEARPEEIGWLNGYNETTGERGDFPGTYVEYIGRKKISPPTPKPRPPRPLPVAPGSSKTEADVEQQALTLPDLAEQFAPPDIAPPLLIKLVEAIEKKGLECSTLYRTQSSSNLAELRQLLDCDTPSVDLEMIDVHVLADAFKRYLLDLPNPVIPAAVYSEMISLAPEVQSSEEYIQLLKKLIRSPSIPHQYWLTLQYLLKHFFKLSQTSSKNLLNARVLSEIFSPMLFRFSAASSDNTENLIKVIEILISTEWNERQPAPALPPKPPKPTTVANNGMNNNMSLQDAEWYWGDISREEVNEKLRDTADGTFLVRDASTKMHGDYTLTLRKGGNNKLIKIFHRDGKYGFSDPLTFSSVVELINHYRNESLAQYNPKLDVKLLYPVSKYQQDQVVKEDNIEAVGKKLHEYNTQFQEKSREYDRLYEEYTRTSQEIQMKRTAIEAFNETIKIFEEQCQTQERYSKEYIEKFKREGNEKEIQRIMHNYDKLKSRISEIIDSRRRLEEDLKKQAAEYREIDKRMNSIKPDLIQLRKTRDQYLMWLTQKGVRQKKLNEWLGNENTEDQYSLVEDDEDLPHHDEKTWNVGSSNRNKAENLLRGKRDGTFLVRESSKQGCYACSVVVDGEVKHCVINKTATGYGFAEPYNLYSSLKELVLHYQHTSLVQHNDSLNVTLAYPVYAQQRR
SMILES,IC50 ([1]; Homo sapiens),IC50 [2],IC50 [3],IC50 [1]
"Cc1nc(N)c2ncc(-c3cc(S(=O)(=O)NCC(C)(C)O)cc(F)c3C)n2n1 [Example 468, 3-(4-Amino-2-methylimidazo[2,1-f][1,2,4]triazin-7-yl)-5-fluoro-N-(2-hydroxy-2-methylpropyl)-4-methylbenzenesulfonamide]",100 to 500 nM,100 to 500 nM,< 100 nM,–
"[2H]C([2H])([2H])c1nc(N)c2ncc(-c3cc(S(=O)(=O)NCC(C)(C)O)cc(F)c3C([2H])([2H])[2H])n2n1 [Example 469, 3-(4-Amino-2-(methyl-d3)imidazo[2,1-f][1,2,4]triazin-7-yl)-5-fluoro-N-(2-hydroxy-2-methylpropyl)-4-(methyl-d3)benzenesulfonamide]",100 to 500 nM,100 to 500 nM,< 100 nM,–
"Cc1ccc(NS(=O)(=O)C2CCOCC2)cc1-c1cnc2c(N)nccn12 [Example 471, N-(3-(8-Aminoimidazo[1,2-a]pyrazin-3-yl)-4-methylphenyl)tetrahydro-2H-pyran-4-sulfonamide]",> 1000 nM,500 to 2000 nM,100 to 500 nM,–
"Cc1ccc(S(=O)(=O)N2CCCC(CO)C2)cc1-c1cnc2c(N)nc(C(F)(F)F)cn12 (stereo not drawn) [Example 472, (1-((3-(8-Amino-6-(trifluoromethyl)imidazo[1,2-a]pyrazin-3-yl)-4-methylphenyl)sulfonyl)piperidin-3-yl)methanol]",100 to 500 nM,100 to 500 nM,< 100 nM,–
"Cc1ccc(S(C)(=O)=O)cc1-c1cnc2c(N)nc(-c3cccc(CC#N)c3)cn12 [Example 474, 2-(3-(8-Amino-3-(2-methyl-5-(methylsulfonyl)phenyl)imidazo[1,2-a]pyrazin-6-yl)phenyl)acetonitrile trifluoroacetate]",100 to 500 nM,100 to 500 nM,< 100 nM,–
"Cc1ccc(S(C)(=O)=O)cc1-c1cnc2c(N)nc(-c3ccc(C(F)F)cc3)cn12 [Example 475, 6-(4-(Difluoromethyl)phenyl)-3-(2-methyl-5-(methylsulfonyl)phenyl)imidazo[1,2-a]pyrazin-8-amine trifluoroacetate]",500 to 1000 nM,100 to 500 nM,< 100 nM,–
"Cc1ccc(S(C)(=O)=O)cc1-c1cnc2c(N)nc(-c3ccncc3F)cn12 [Example 476, 6-(3-Fluoropyridin-4-yl)-3-(2-methyl-5-(methylsulfonyl)phenyl)imidazo[1,2-a]pyrazin-8-amine trifluoroacetate]",100 to 500 nM,100 to 500 nM,< 100 nM,–
"COc1ncccc1-c1cn2c(-c3cc(S(C)(=O)=O)ccc3C)cnc2c(N)n1 [Example 477, 6-(2-Methoxypyridin-3-yl)-3-(2-methyl-5-(methylsulfonyl)phenyl)imidazo[1,2-a]pyrazin-8-amine trifluoroacetate]",–,100 to 500 nM,< 100 nM,100 to 500 nM
"Cc1ccc(S(C)(=O)=O)cc1-c1cnc2c(N)nc(-c3cccc(CO)c3F)cn12 [Example 481, (3-(8-Amino-3-(2-methyl-5-(methylsulfonyl)phenyl)imidazo[1,2-a]pyrazin-6-yl)-2-fluorophenyl)methanol]",100 to 500 nM,100 to 500 nM,< 100 nM,–
"Cc1ccc(S(C)(=O)=O)cc1-c1cnc2c(N)nc(-c3ccc(N)nc3)cn12 [Example 482, 6-(6-Aminopyridin-3-yl)-3-(2-methyl-5-(methylsulfonyl)phenyl)imidazo[1,2-a]pyrazin-8-amine trifluoroacetate]",> 1000 nM,500 to 2000 nM,< 100 nM,–
"COc1nccc(-c2cn3c(-c4cc(S(C)(=O)=O)ccc4C)cnc3c(N)n2)c1F [Example 483, 6-(3-Fluoro-2-methoxypyridin-4-yl)-3-(2-methyl-5-(methylsulfonyl)phenyl)imidazo[1,2-a]pyrazin-8-amine trifluoroacetate]",> 1000 nM,< 100 nM,< 100 nM,–
"Cc1ccc(S(C)(=O)=O)cc1-c1cnc2c(N)nc(-c3ccncc3Cl)cn12 [Example 484, 6-(3-Chloropyridin-4-yl)-3-(2-methyl-5-(methylsulfonyl)phenyl)imidazo[1,2-a]pyrazin-8-amine trifluoroacetate]",100 to 500 nM,100 to 500 nM,< 100 nM,–
"COc1cnccc1-c1cn2c(-c3cc(S(C)(=O)=O)ccc3C)cnc2c(N)n1 [Example 485, 6-(3-Methoxypyridin-4-yl)-3-(2-methyl-5-(methylsulfonyl)phenyl)imidazo[1,2-a]pyrazin-8-amine trifluoroacetate]",100 to 500 nM,100 to 500 nM,< 100 nM,–
"Cc1ccc(S(C)(=O)=O)cc1-c1cnc2c(N)nc(-c3cccc(OCC#N)c3)cn12 [Example 486, 2-(3-(8-Amino-3-(2-methyl-5-(methylsulfonyl)phenyl)imidazo[1,2-a]pyrazin-6-yl)phenoxy)acetonitrile trifluoroacetate]",100 to 500 nM,100 to 500 nM,< 100 nM,–
"Cc1ccc(S(C)(=O)=O)cc1-c1cnc2c(N)nc(-c3ccc(C(C)O)cc3F)cn12 (stereo not drawn) [Example 488, 1-(4-(8-Amino-3-(2-methyl-5-(methylsulfonyl)phenyl)imidazo[1,2-a]pyrazin-6-yl)-3-fluorophenyl)ethan-1-ol]",100 to 500 nM,100 to 500 nM,< 100 nM,–
"Cc1cc(-c2cn3c(-c4cc(S(C)(=O)=O)ccc4C)cnc3c(N)n2)c(F)cn1 [Example 489, 6-(5-Fluoro-2-methylpyridin-4-yl)-3-(2-methyl-5-(methylsulfonyl)phenyl)imidazo[1,2-a]pyrazin-8-amine trifluoroacetate]",100 to 500 nM,100 to 500 nM,< 100 nM,–
"COc1nc(CO)ccc1-c1cn2c(-c3cc(S(C)(=O)=O)ccc3C)cnc2c(N)n1 [Example 490, (5-(8-Amino-3-(2-methyl-5-(methylsulfonyl)phenyl)imidazo[1,2-a]pyrazin-6-yl)-6-methoxypyridin-2-yl)methanol trifluoroacetate]",< 100 nM,100 to 500 nM,< 100 nM,–
"COc1cn[nH]c1-c1cn2c(-c3cc(S(C)(=O)=O)ccc3C)cnc2c(N)n1 [Example 491, 6-(4-Methoxy-1H-pyrazol-5-yl)-3-(2-methyl-5-(methylsulfonyl)phenyl)imidazo[1,2-a]pyrazin-8-amine trifluoroacetate]",100 to 500 nM,100 to 500 nM,< 100 nM,–
"Cc1ccc(S(=O)(=O)CC2CCOCC2)cc1-c1cnc2c(N)ncnn12 [Example 492, 7-(2-Methyl-5-(((tetrahydro-2H-pyran-4-yl)methyl)sulfonyl)phenyl)imidazo[2,1-f][1,2,4]triazin-4-amine trifluoroacetate]",500 to 1000 nM,500 to 2000 nM,< 100 nM,–
"Cc1ccc(S(=O)(=O)CCC(F)(F)F)cc1-c1cnc2c(N)ncnn12 [Example 493, 7-(2-Methyl-5-((3,3,3-trifluoropropyl)sulfonyl)phenyl)imidazo[2,1-f][1,2,4]triazin-4-amine trifluoroacetate]",> 1000 nM,> 2000 nM,100 to 500 nM,–
"Cc1ccc(S(=O)(=O)CCC(C)O)cc1-c1cnc2c(N)nc(C(F)(F)F)cn12 (stereo not drawn) [Example 494, 4-((3-(8-Amino-6-(trifluoromethyl)imidazo[1,2-a]pyrazin-3-yl)-4-methylphenyl)sulfonyl)butan-2-ol]",> 1000 nM,500 to 2000 nM,< 100 nM,–
"Cc1ccc(S(=O)(=O)CCC(C)(C)O)cc1-c1cnc2c(N)nc(C(F)(F)F)cn12 [Example 495, 4-((3-(8-Amino-6-(trifluoromethyl)imidazo[1,2-a]pyrazin-3-yl)-4-methylphenyl)sulfonyl)-2-methylbutan-2-ol]",–,500 to 2000 nM,< 100 nM,> 1000 nM
"Cc1ccc(S(=O)(=O)CC(C)O)cc1-c1cnc2c(N)nc(C(F)(F)F)cn12 (stereo not drawn) [Example 496, 1-((3-(8-Amino-6-(trifluoromethyl)imidazo[1,2-a]pyrazin-3-yl)-4-methylphenyl)sulfonyl)propan-2-ol trifluoroacetate]",500 to 1000 nM,500 to 2000 nM,< 100 nM,–
"Cc1ccc(S(=O)(=O)CC2CC(F)(F)C2)cc1-c1cnc2c(N)ncnn12 [Example 500, 7-(5-(((3,3-Difluorocyclobutyl)methyl)sulfonyl)-2-methylphenyl)imidazo[2,1-f][1,2,4]triazin-4-amine]",100 to 500 nM,500 to 2000 nM,< 100 nM,–
"COc1ncccc1-c1cn2c(-c3cc(S(=O)(=O)C(C)(C)C(C)O)ccc3C)cnc2c(N)n1 (stereo not drawn) [Example 502, 3-((3-(8-Amino-6-(2-methoxypyridin-3-yl)imidazo[1,2-a]pyrazin-3-yl)-4-methylphenyl)sulfonyl)-3-methylbutan-2-ol trifluoroacetate]",100 to 500 nM,< 100 nM,< 100 nM,–
"Cc1ccc(S(=O)(=O)CC2(O)CCC2)cc1-c1cnc2c(N)nc(-c3ccncc3F)cn12 [Example 503, 1-(((3-(8-Amino-6-(3-fluoropyridin-4-yl)imidazo[1,2-a]pyrazin-3-yl)-4-methylphenyl)sulfonyl)methyl)cyclobutan-1-ol]",100 to 500 nM,< 100 nM,< 100 nM,–
